Patent publication US20260001928A1 (CORTERIA PHARMACEUTICALS, priority 2022, published 2026)
*1 amine or outer side, *2 acyl side, *3 side chain or, on linkers, in order; H or OH if unused. Where a SMILES comes first, the peptide text is derived from it. Side-chain parts run from the residue outwards. [ ]: non-standard residue; d: D form. The star is where a group is joined. C18 diacid = O=C(O)CCCCCCCCCCCCCCCCC(=O)*; γGlu = O=C(O)[C@H](CCC(=O)[*:2])N[*:1]; AEEA = NCCOCCOCC(=O)O

Legend:
CFR1R receptor = molecular target: T1, CFR1R receptor (Homo sapiens, UniProt P34998); experiment: Activity at anti-target CFR1R receptor, cAMP assay in CRF1R-overexpression CHO-K1 cells; format: cell-based; conditions: 100% = Sauvagine at 100 nM; for EC50: cAMP
T1 construct: host or cells: CHO-K1 (clone 2)
T1 sequence (P34998 24-415): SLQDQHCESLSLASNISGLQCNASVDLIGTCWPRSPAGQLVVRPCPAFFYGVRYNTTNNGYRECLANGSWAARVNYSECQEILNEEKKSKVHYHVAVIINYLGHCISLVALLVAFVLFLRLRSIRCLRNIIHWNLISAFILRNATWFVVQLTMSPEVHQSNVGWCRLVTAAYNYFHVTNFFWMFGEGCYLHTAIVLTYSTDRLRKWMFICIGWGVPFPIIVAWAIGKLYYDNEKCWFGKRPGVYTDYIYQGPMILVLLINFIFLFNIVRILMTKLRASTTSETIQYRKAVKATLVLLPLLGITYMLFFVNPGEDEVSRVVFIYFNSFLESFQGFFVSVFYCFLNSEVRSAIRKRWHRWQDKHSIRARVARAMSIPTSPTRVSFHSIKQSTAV
Procedure, shortened: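 Signal is normalised to 100 nM Sauvagine, taken as 100% activation, in clone 2 cells plated at a final 4000 cells/well from frozen stocks.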

human CRF2a receptor = molecular target: T2, human CRF2a receptor (Homo sapiens, UniProt Q13324); experiment: Activity at human CRF2a receptor, cAMP functional assay in TeloHEAC cells; format: cell-based; conditions: TeloHEAC cells stably expressing human CRF2a receptor, relative to urocortin 2 (100 nM = 100%)
T2 construct: expressed in transfected cells; host or cells: TeloHEAC cells
T2 sequence (Q13324 1-411): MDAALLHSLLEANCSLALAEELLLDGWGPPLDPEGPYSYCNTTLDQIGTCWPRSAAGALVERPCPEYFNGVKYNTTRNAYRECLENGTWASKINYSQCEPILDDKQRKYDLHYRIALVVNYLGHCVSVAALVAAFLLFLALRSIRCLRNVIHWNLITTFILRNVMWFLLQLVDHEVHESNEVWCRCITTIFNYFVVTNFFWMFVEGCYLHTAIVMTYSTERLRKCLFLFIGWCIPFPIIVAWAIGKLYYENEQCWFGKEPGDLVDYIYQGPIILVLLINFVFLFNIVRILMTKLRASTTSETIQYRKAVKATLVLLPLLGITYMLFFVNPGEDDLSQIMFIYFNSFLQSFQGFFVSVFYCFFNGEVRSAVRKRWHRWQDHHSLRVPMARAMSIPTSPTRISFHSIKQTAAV
Procedure, shortened: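 TeloHEAC cells stably expressing human CRF2a (10000 cells/well, suspended in HBSS/20 mM HEPES with 2 mM IBMX) were exposed to compounds for 30 min at 37 °C. cAMP was read as the 665/620 nm fluorescence ratio after 1 h at room temperature. EC50 was derived relative to 100 nM urocortin 2, set as 100%.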

In the case of CC[C@H](C)[C@H](NC(C)=O)C(=O)N[C@H](C(=O)N[C@@H](CC(C)C)C(=O)N[C@@H](CO)C(=O)N[C@@H](CC(C)C)C(=O)N[C@@H](CC(=O)O)C(=O)N[C@H](C(=O)N1CCC[C@H]1C(=O)N[C@H](C(=O)N[C@@H](CCCCN)C(=O)N[C@@H](CC(C)C)C(=O)N[C@@H](CCCCNC(=O)COCCOCCNC(=O)COCCOCCNC(=O)CC[C@H](NC(=O)CCCCCCCCCCCCCCCCC(=O)O)C(=O)O)C(=O)N[C@@H](CCCCN)C(=O)N[C@H](C(=O)N[C@@H](CC(C)C)C(=O)N[C@@H](CC(C)C)C(=O)N[C@@H](CCC(=O)O)C(=O)N[C@@H](CCC(N)=O)C(=O)N[C@@H](CCC(=O)O)C(=O)N[C@@H](CCCCN)C(=O)N[C@@H](CCC(N)=O)C(=O)N[C@@H](CCCCN)C(=O)N[C@@H](CCCCN)C(=O)N[C@@H](CCC(N)=O)C(=O)N[C@@H](CCCNC(=N)N)C(=O)N[C@@H](CCC(=O)O)C(=O)N[C@@H](CCC(N)=O)C(=O)N[C@@H](C)C(=O)N[C@@H](CCC(=O)O)C(=O)N[C@H](C(=O)N[C@@H](CC(N)=O)C(=O)N[C@H](C(=O)N[C@@H](CCC(N)=O)C(=O)N[C@H](C(=O)N[C@@H](CC(C)C)C(=O)N[C@@H](C)C(=O)N[C@@H](CCC(N)=O)C(=O)N[C@H](C(N)=O)C(C)C)[C@@H](C)CC)C(C)C)[C@@H](C)O)[C@@H](C)CC)[C@@H](C)CC)C(C)C)C(C)C [compound 102] (Ac-IVLSLDVPIKLK([AEEA-AEEA-γGlu-C18 diacid])KILLEQEKQKKQREQAETNVQILAQV-NH2), the “Emax (% I)” value (CFR1R receptor) is reported as −5 % I, the EC50 (CFR1R receptor) is reported as greater than 250 nM and the EC50 (human CRF2a receptor) is reported as 17.6 nM.

In the case of CC[C@H](C)[C@H](NC(C)=O)C(=O)N[C@H](C(=O)N[C@@H](CC(C)C)C(=O)N[C@@H](CO)C(=O)N[C@@H](CC(C)C)C(=O)N[C@@H](CC(=O)O)C(=O)N[C@@H](C(=O)N1CCC[C@H]1C(=O)N[C@H](C(=O)N[C@@H](CCCCN)C(=O)N[C@@H](CC(C)C)C(=O)N[C@@H](CCCCNC(=O)CC[C@H](NC(=O)CCCCCCCCCCCCCCCCC(=O)O)C(=O)O)C(=O)N[C@@H](CCCCN)C(=O)N[C@H](C(=O)N[C@@H](CC(C)C)C(=O)N[C@@H](CC(C)C)C(=O)N[C@@H](CCC(=O)O)C(=O)N[C@@H](CCC(N)=O)C(=O)N[C@@H](CCC(=O)O)C(=O)N[C@@H](CCCCN)C(=O)N[C@@H](CCC(N)=O)C(=O)N[C@@H](CCCCN)C(=O)N[C@@H](CCCCN)C(=O)N[C@@H](CCC(N)=O)C(=O)N[C@@H](CCCNC(=N)N)C(=O)N[C@@H](CCC(=O)O)C(=O)N[C@@H](CCC(N)=O)C(=O)N[C@@H](C)C(=O)N[C@@H](CCC(=O)O)C(=O)N[C@H](C(=O)N[C@@H](CC(N)=O)C(=O)N[C@@H](CCC(=O)O)C(=O)N[C@@H](CCC(N)=O)C(=O)N[C@H](C(=O)N[C@@H](CC(C)C)C(=O)N[C@@H](C)C(=O)N[C@@H](CCC(N)=O)C(=O)N[C@H](C(N)=O)C(C)C)[C@@H](C)CC)[C@@H](C)O)[C@@H](C)CC)[C@@H](C)CC)C(C)C)C(C)C [compound 130] (Ac-IVLSLD[dV]PIKLK([γGlu-C18 diacid])KILLEQEKQKKQREQAETNEQILAQV-NH2), the “Emax (% I)” value (CFR1R receptor) is reported as 4 % I, the EC50 (CFR1R receptor) is reported as greater than 250 nM and the EC50 (human CRF2a receptor) is reported as 0.08 nM.
